The source of these data is patent US20250011288A1 (BRISTOL-MYERS SQUIBB COMPANY, priority 2021, published 2025).

The target in the assay is T1, human RXFP1 (Homo sapiens, UniProt Q9HBX9).
T1 construct: expressed in transfected cells
T1 sequence (Q9HBX9 1-757): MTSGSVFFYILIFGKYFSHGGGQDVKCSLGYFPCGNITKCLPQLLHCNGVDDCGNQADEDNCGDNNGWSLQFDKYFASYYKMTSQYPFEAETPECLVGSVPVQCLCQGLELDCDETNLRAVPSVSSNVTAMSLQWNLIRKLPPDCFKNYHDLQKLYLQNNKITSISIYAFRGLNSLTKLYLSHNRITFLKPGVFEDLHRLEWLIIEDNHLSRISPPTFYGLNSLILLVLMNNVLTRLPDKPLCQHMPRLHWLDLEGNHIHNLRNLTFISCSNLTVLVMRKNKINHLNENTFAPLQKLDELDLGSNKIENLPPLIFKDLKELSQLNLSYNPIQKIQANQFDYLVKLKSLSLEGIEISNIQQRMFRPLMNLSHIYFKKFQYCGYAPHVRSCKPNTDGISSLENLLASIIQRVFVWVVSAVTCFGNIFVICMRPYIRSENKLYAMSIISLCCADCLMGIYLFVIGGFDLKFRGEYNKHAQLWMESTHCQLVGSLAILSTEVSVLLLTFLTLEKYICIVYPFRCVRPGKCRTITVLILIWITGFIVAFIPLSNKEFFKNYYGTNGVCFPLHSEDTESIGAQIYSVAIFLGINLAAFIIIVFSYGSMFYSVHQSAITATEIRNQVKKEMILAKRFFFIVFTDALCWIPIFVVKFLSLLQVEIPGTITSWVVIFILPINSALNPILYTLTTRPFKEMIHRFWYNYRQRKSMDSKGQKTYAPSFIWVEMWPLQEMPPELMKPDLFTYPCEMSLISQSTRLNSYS
The experiment in a line: human RXFP1 (hRXFP1) HEK293 cAMP assay (HTRF). To be noted: HEK293 cells stably expressing human RXFP1, 30 min at room temperature. The format is cell-based. The essentials: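 HEK293 cells stably expressing human RXFP1 (1500 cells/well) in HBSS/20 mM HEPES/0.05% BSA/0.5 mM IBMX, treated with compound (0.010 nM–50 µM final, 2% DMSO) for 30 min at room temperature. Intracellular cAMP read by HTRF; potency from 4-parameter logistic fit of cAMP versus concentration.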
Turning to `COc1ncc(-c2cc(C(=O)O)ccc2F)cc1C(=O)N[C@@H]1C2CCC(/C2=C/C(F)(F)F)[C@@H]1C(=O)Nc1ccc(F)c(C(F)(F)F)c1` (stereo partly drawn) [Example 28, 4-Fluoro-3-(5-{[(2R,3S,7Z)-3-{[4-fluoro-3-(trifluoromethyl)phenyl]carbamoyl}-7-(2,2,2-trifluoroethylidene)bicyclo[2. 2.1]heptan-2-yl]carbamoyl}-6-methoxypyridin-3-yl)benzoic acid], the EC50 was determined as 34 nM.

`Cc1nc(O)c(C(=O)N[C@H]2[C@@H](C(=O)Nc3ccc(F)c(C(F)(F)F)c3)[C@H]3CC[C@@H]2/C3=C\C(F)(F)F)cc1-c1cccc(C(=O)O)c1` [Example 56, 3-(5-(((1R,2R,3S,4R,Z)-3-((4-fluoro-3-(trifluoromethyl)phenyl)carbamoyl)-7-(2,2,2-trifluoroethylidene)bicyclo[2.2.1]heptan-2-yl)carbamoyl)-6-hydroxy-2-methylpyridin-3-yl)benzoic acid] came in with an EC50 of 2800 nM.

Take `COc1cnc(-c2cc([C@H](OC(=O)Nc3ccccc3)C(F)(F)F)ccc2F)nc1C(=O)N[C@@H]1C2CCC(/C2=C/C(F)(F)F)[C@@H]1C(=O)Nc1ccc(F)c(C(F)(F)F)c1` (stereo partly drawn) [Example 36, (1S)-2.2,2-trifluoro-1-[4-fluoro-3-(4-{[(2R,3S,7Z)-3-{[4-fluoro-3-(trifluoromethyl)phenyl]carbamoyl}-7-(2,2,2-trifluoroethylidene)bicyclo[2. 2.1]heptan-2-yl]carbamoyl}-5-methoxypyrimidin-2-yl)phenyl]ethyl N-phenylcarbamate]: it took 63 nM to reach a half-maximal effect (EC50). This EC50 is about 44-fold lower than that of the molecule before. To `COCCN1CCc2cc(C(=O)N[C@@H]3C4CCC(/C4=C/C4CC4)[C@@H]3C(=O)Nc3ccc(F)c(C(F)(F)F)c3)c(OC)cc2C1` (stereo partly shown) [Example 91] belongs 4700 nM.

With `COc1ncc(C2=NOC3COCC23)cc1C(=O)N[C@H]1[C@@H](C(=O)N[C@H](C)C2(C)CC2)[C@H]2CC[C@@H]1/C2=C\c1csc(C(F)(F)F)n1` (stereo partly drawn) [Example 119, 2-methoxy-N-((1R,2R,3S,4R,Z)-3-(((R)-1-(1-methylcyclopropyl)ethyl)carbamoyl)-7-((2-(trifluoromethyl)thiazol-4-yl)methylene)bicyclo[2.2.1]heptan-2-yl)-5-(3a,4,6,6a-tetrahydrofuro[3,4-d]isoxazol-3-yl)nicotinamide], the EC50 amounted to 3.9 nM. To `COc1ncc(-c2cc([C@H](O)C(F)(F)F)ccc2F)nc1C(=O)N[C@@H]1C2CCC(/C2=C/C(F)(F)F)[C@@H]1C(=O)Nc1ccc(F)c(C(F)(F)F)c1` (stereo partly drawn) [Example 34, N-[(2R,3S,7Z)-3-{[4-fluoro-3-(trifluoromethyl)phenyl]carbamoyl}-7-(2,2,2-trifluoroethylidene)bicyclo[2.2.1]heptan-2-yl]-6-{2-fluoro-5-[(1S)-2,2,2-trifluoro-1-hydroxyethyl]phenyl}-3-methoxypyrazine-2-carboxamide] belongs 3000 nM; to `COc1nn(-c2cccc(C(=O)O)c2)cc1C(=O)N[C@@H]1C2CCC(/C2=C/C(F)(F)F)[C@@H]1C(=O)Nc1ccc(F)c(C(F)(F)F)c1` (stereo partly drawn) [Example 53, 3-(4-{[(2R,3S,7Z)-3-{[4-fluoro-3-(trifluoromethyl)phenyl]carbamoyl}-7-(2,2,2-trifluoroethylidene)bicyclo[2.2.1]heptan-2-yl]carbamoyl}-3-methoxy-1H-pyrazol-1-yl)benzoic acid], 1600 nM; to `O=C(N[C@@H]1C2CCC(/C2=C/C(F)(F)F)[C@@H]1C(=O)Nc1ccc(F)c(C(F)(F)F)c1)c1cc(Br)ncc1OCCO` (stereo partly drawn) [Example 45, 2-Bromo-N-[(2R,3S,7Z)-3-{[4-fluoro-3-(trifluoromethyl)phenyl]carbamoyl}-7-(2,2,2-trifluoroethylidene)bicyclo[2. 2.1]heptan-2-yl]-5-(2-hydroxyethoxy) pyridine-4-carboxamide], 560 nM. Under `O=C(O)c1ccc(F)c(-c2cc(C(=O)N[C@@H]3C4CCC(/C4=C/C(F)(F)F)[C@@H]3C(=O)Nc3ccc(F)c(C(F)(F)F)c3)c(OCCO)cn2)c1` (stereo partly drawn) [Example 44, 4-Fluoro-3-(4-{[(2R,3S,7Z)-3-{[4-fluoro-3-(trifluoromethyl)phenyl]carbamoyl}-7-(2,2,2-trifluoroethylidene)bicyclo[2.2.1]heptan-2-yl]carbamoyl}-5-(2-hydroxyethoxy)pyridin-2-yl)benzoic acid] stands 360 nM; under `COc1ncc(-c2cnc3n2CC(O)CC3)cc1C(=O)N[C@H]1[C@@H](C(=O)Nc2ccc(F)c(C(F)(F)F)c2)[C@H]2CC[C@@H]1/C2=C\C1CC1` (stereo partly drawn) [Example 103, N-((1R,2R,3S,4R,Z)-7-(cyclopropyl-methylene)-3-((4-fluoro-3-(trifluoromethyl)phenyl)carbamoyl)bicyclo[2.2.1]heptan-2-yl)-5-(6-hydroxy-5,6,7,8-tetrahydroimidazo [1,2-a]pyridin-3-yl)-2-methoxynicotinamide], 3.4 nM; under `COc1cc2c(cc1C(=O)N[C@@H]1C3CCC(/C3=C/C3CC3)[C@@H]1C(=O)Nc1ccc(F)c(C(F)(F)F)c1)CN(CCCO)CC2` (stereo partly drawn) [Example 86, N-[(1R,2R,3S,4R)-7-(cyclopropyl-methylidene)-3-{[4-fluoro-3-(trifluoromethyl)phenyl]carbamoyl}bicyclo[2.2.1]heptan-2-yl]-2-(3-hydroxypropyl)-6-methoxy-1,2,3,4-tetrahydroiso-quinoline-7-carboxamide], 240 nM. Molecule `COc1cnccc1C(=O)N[C@@H]1C2CCC(C2=C(C)C)[C@@H]1C(=O)Nc1ccc(F)c(C(F)(F)F)c1` (stereo partly drawn) [Example 6, N-[(2R,3S)-3-{[4-fluoro-3-(trifluoromethyl)phenyl]carbamoyl}-7-(propan-2-ylidene)bicyclo [2.2.1]heptan-2-yl]-3-methoxypyridine-4-carboxamide] had an EC50 of 1100 nM. To `COc1cc2c(cc1C(=O)N[C@H]1[C@@H](C(=O)Nc3ccc(F)c(C(F)(F)F)c3)[C@H]3CC[C@@H]1/C3=C\C1CC1)CN(S(=O)(=O)CC(C)C)CC2` [Example 88, N-((1R,2R,3S,4R,Z)-7-(cyclopropylmethylene)-3-((4-fluoro-3-(trifluoromethyl)phenyl)carbamoyl)bicyclo[2.2.1]heptan-2-yl)-2-(isobutylsulfonyl)-6-methoxy-1,2,3,4-tetrahydroisoquinoline-7-carboxamide] belongs 110 nM.

Consider `O=C(N[C@@H]1C2CCC(/C2=C/C(F)(F)F)[C@@H]1C(=O)Nc1ccc(F)c(C(F)(F)F)c1)c1cnn2c(C(F)F)cc(Cl)cc12` (stereo partly shown) [Example 13], for which a half-maximal effect (EC50) was put at 1700 nM. As to `COc1ncc(C(=O)N2CC(O)C2)cc1C(=O)N[C@H]1[C@@H](C(=O)Nc2ccc(F)c(C(F)(F)F)c2)[C@H]2CC[C@@H]1/C2=C\C1CC1` [Example 75, N-[(1R,2R,3S, 4R,7Z)-7-(cyclopropyl-methylidene)-3-{[4-fluoro-3-(trifluoromethyl)phenyl]carbamoyl}bicyclo[2.2.1]heptan-2-yl]-5-(3-hydroxyazetidine-1-carbonyl)-2-methoxypyridine-3-carboxamide], a half-maximal response (EC50) required 8.1 nM. To `COc1ncc(-c2cc([C@H](OC(=O)NC3CC3)C(F)(F)F)ccc2F)cc1C(=O)N[C@@H]1C2CCC(/C2=C/C2CCCC2)[C@@H]1C(=O)Nc1ccc(F)c(C(F)(F)F)c1` (stereo partly drawn) [Example 164, (1S)-1-[3-(5-{[(1R,2R,3S,4R, 7Z)-7-(cyclopentyl-methylidene)-3-{[4-fluoro-3-(trifluoromethyl)phenyl]carbamoyl}bicyclo[2.2.1]heptan-2-yl]carbamoyl}-6-methoxypyridin-3-yl)-4-fluorophenyl]-2,2,2-trifluoroethyl N-cyclopropylcar-bamate] belongs 1.4 nM.
